{"source": "paper PMC11532403", "about": "(Signal Transduction and Targeted Therapy, 2024)", "key": {"[1]": {"molecular_target": "T1, CYP2C19 (Homo sapiens, UniProt P33261)", "T1 construct": "substrates of different CYP450 enzymes in mixed human liver microsomes; from tissue; host or cells: mixed human liver microsomes", "experiment": "CYP inhibition in human liver microsomes", "type": "in vitro ADME", "settings": "0.5-25 μM"}, "[2]": {"tested_on": "RET phosphorylation in BaF3-CCDC6-RET^WT cells", "experiment": "RET signaling pathway phosphorylation in cells", "type": "cell-based"}, "[3]": {"tested_on": "central nervous system (CNS) metastases", "experiment": "Phase 1 trial: intracranial efficacy (RANO-BM)", "type": "in vivo, human", "settings": "for Intracranial lesion reduction: case, KIF5B-RET NSCLC, 160 mg BID", "description": "Ongoing assessments are underway to gain a more comprehensive understanding of its intracranial efficacy."}, "[4]": {"experiment": "Excretion in rats (feces, urine, bile)", "type": "in vivo", "procedure": "The total fecal and urinary excretion of prodrug and metabolite was 62.8% of the administered dose. The amount of prodrug and metabolite in bile from 0 to 48 h in bile duct-intubated rats was 5.22% of the administered dose, of which 0.656% was prodrug and 4.57% was metabolite."}, "[5]": {"experiment": "Pharmacokinetics in rats", "type": "in vivo, SD rats"}, "[6]": {"tested_on": "Baf3-CCDC6-RET^M918T xenograft", "experiment": "Tumor xenograft model", "type": "in vivo, BALB/c nude mice", "settings": "9 days", "procedure": "(§1) All procedures relating to animal handling, care, and treatment were performed according to the Beijing Laboratory Animal Management Regulations. 6-week-old male BALB/c nude mice were inoculated subcutaneously into the flank with Baf3-CCDC6-RET^WT (5*10^6 cells/ 0.1 mL/ each), Baf3-CCDC6-RET^M918T (5*10^6 cells/0.1 mL/each), Baf3-CCDC6-RET^V804M (5*10^6 cells/ 0.1 mL/ each), or HEK293T-KIF5B-RET^V804M (5*10^6 cells/ 0.1 mL/ each). Mice were randomized by tumor size into groups of 10 to 12 when tumor volume reached approximately 100-150 mm^3. […] Tumor size and body weight were measured two times each week, and tumor volume was calculated with the following formula: [length × (width)^2]/ 2. Statistical significance was calculated by using two-way ANOVA test to assess the difference in tumor volumes between the control (vehicle-treated) and treatment groups."}, "[7]": {"tested_on": "HEK293T-KIF5B-RET^V804M xenograft", "experiment": "Tumor xenograft model", "type": "in vivo, BALB/c nude mice", "settings": "14 days", "procedure": "as §1"}, "[8]": {"tested_on": "Baf3-CCDC6-RET^WT xenograft", "experiment": "Tumor xenograft model", "type": "in vivo, BALB/c nude mice", "procedure": "as §1"}, "[9]": {"tested_on": "Baf3-CCDC6-RET^V804M xenograft", "experiment": "Tumor xenograft model", "type": "in vivo, BALB/c nude mice", "settings": "9 days", "procedure": "as §1"}, "[10]": {"experiment": "Liver microsome metabolic stability", "type": "in vitro ADME", "settings": "1 μM", "description": "The production of major metabolites in human liver microsomes is closer to that in rats or dogs than in mice or monkeys. The amounts of major metabolites produced in human liver microsomes was closer to the amount produced in […]. […] In addition to the same eight monophasic metabolites as in the in vitro study, five di-phasic metabolites, M6, M7, M8, M9 and M10, were detected in rat bile, but the peak areas of the di-phasic metabolites were much smaller than those of the monophasic metabolites."}, "[11]": {"experiment": "Pharmacokinetics in beagles", "type": "in vivo", "settings": "both sexes, beagle, dog, plasma, po", "description": "Absorption and elimination in the body may both gradually tend towards saturation. In addition, there was no statistically significant difference in plasma pharmacokinetic parameters between female and male beagles administered SY-5007 by gavage alone."}, "[12]": {"tested_on": "respiratory system", "experiment": "Respiratory safety pharmacology", "type": "in vivo, SD rats", "settings": "single oral, males 15-40, females 30-80 mg/kg", "procedure": "All rats were evaluated by cage-side observation, detailed clinical observation, body weight and respiratory parameters (tidal volume, minute tidal volume and respiratory rate)."}, "[13]": {"tested_on": "RET signaling in BaF3-CCDC6-RET^V804M/M918T cells", "experiment": "RET signaling pathway phosphorylation in cells", "type": "cell-based"}, "[14]": {"settings": "both sexes, SD, rat, plasma, iv, 1 mg/kg i.v."}, "[15]": {"settings": "both sexes, SD, rat, plasma, po, gavage 5 mg/kg"}, "[16]": {"settings": "both sexes, SD, rat, plasma, po, gavage 20 mg/kg"}, "[17]": {"settings": "both sexes, SD, rat, plasma, po, gavage 50 mg/kg"}, "[18]": {"settings": "high-dose study, 10 mg/kg (so in the source)"}}, "data": [{"smiles": "COc1ccc(CN2C3CC2CN(c2ccc(-c4cc(N5CC(C)(O)C5)cn5ncc(C#N)c45)cn2)C3)cn1", "note": "[SY-5007, 6-(3-hydroxy-3-methylazetidin-1-yl)-4-(6-(6-((6-methoxypyridin-3-yl)methyl)-3,6-diazabicyclo[3.1.1]heptan-3-yl)pyridin-3-yl)pyrazolo[1,5-a]pyridine-3-carbonitrile]", "values": [{"measurement": "IC50", "setting": "[1]", "result": "> 25", "unit": "µM"}, {"measurement": "Concentration at which effect reaches saturation", "setting": "[2]", "result": 10, "unit": "nM"}, {"measurement": "Concentration significantly inhibiting RET phosphorylation", "setting": "[2]", "result": 1, "unit": "nM"}, {"measurement": "Intracranial ORR", "setting": "[3]; 2/3 patients with measurable CNS metastases", "result": 66.7, "unit": "%"}, {"measurement": "Intracranial DCR", "setting": "[3]; 3/3 patients", "result": 100.0, "unit": "%"}, {"measurement": "Intracranial lesion reduction", "setting": "[3]; after 4 weeks", "result": 40.7, "unit": "%"}, {"measurement": "Intracranial lesion reduction", "setting": "[3]; after 12 weeks", "result": 56.5, "unit": "%"}, {"measurement": "Fecal excretion, prodrug (parent)", "setting": "[4]; 20 mg/kg gavage", "result": 55.4, "unit": "%"}, {"measurement": "Urinary excretion, prodrug (parent)", "setting": "[4]; 20 mg/kg gavage", "result": 0.801, "unit": "%"}, {"measurement": "Bile excretion, prodrug (parent)", "setting": "[4]; bile duct-intubated rats", "result": 0.656, "unit": "%"}, {"measurement": "clearance", "setting": "[5]; [14]", "result": 3.42, "unit": "mL/min/kg"}, {"measurement": "half-life", "setting": "[5]; [14]", "result": 3.34, "unit": "h"}, {"measurement": "Vd", "setting": "[5]; both sexes, SD, rat, plasma, iv, 1 mg/kg i.v., read-out: Vss", "result": 0.697, "unit": "L/kg"}, {"measurement": "AUC(0-inf)", "setting": "[5]; [15]", "result": 11900, "unit": "ng·h/mL"}, {"measurement": "Cmax", "setting": "[5]; [15]", "result": 2190, "unit": "ng/mL"}, {"measurement": "AUC(0-inf)", "setting": "[5]; [16]", "result": 48100, "unit": "ng·h/mL"}, {"measurement": "Cmax", "setting": "[5]; [16]", "result": 7150, "unit": "ng/mL"}, {"measurement": "AUC(0-inf)", "setting": "[5]; [17]", "result": 112000, "unit": "ng·h/mL"}, {"measurement": "Cmax", "setting": "[5]; [17]", "result": 12600, "unit": "ng/mL"}, {"measurement": "half-life", "setting": "[5]; both sexes, SD, rat, plasma, po, gavage 5-50 mg/kg", "result": "3.61 to 4.49", "unit": "h"}, {"measurement": "MRT inf", "setting": "[5]; both sexes, SD, rat, plasma, po, gavage 5-50 mg/kg, read-out: MRTINF_obs", "result": "4.92 to 6.96", "unit": "h"}, {"measurement": "bioavailability", "setting": "[5]; both sexes, SD, rat, plasma, po, gavage 5-50 mg/kg, read-out: Oral bioavailability (F)", "result": "39.1 to 42.1", "unit": "%"}, {"measurement": "Tmax", "setting": "[5]; both sexes, SD, rat, plasma, po, single gavage 5, 20, 50 mg/kg", "result": "0.25 to 2", "unit": "h"}, {"measurement": "AUC0-24h increase day 7 vs day 1", "setting": "[5]; males, 20 mg/kg once daily 7 days", "result": 47.3, "unit": "%"}, {"measurement": "TGI", "setting": "[6]; 10 mg/kg oral", "result": 12.4, "unit": "%"}, {"measurement": "TGI", "setting": "[6]; 20 mg/kg oral", "result": 40.9, "unit": "%"}, {"measurement": "TGI", "setting": "[6]; 40 mg/kg oral", "result": 93.0, "unit": "%"}, {"measurement": "TGI", "setting": "[7]; 10 mg/kg twice daily", "result": 40.7, "unit": "%"}, {"measurement": "TGI", "setting": "[7]; 20 mg/kg twice daily", "result": 70.3, "unit": "%"}, {"measurement": "TGI", "setting": "[7]; 40 mg/kg twice daily", "result": 94.1, "unit": "%"}, {"measurement": "TGI", "setting": "[8]; 3 mg/kg twice daily, 13 days", "result": 59.2, "unit": "%"}, {"measurement": "TGI", "setting": "[8]; 6 mg/kg twice daily, 13 days", "result": 80.1, "unit": "%"}, {"measurement": "TGI", "setting": "[8]; 12 mg/kg twice daily, 13 days", "result": 93.5, "unit": "%"}, {"measurement": "TGI", "setting": "[8]; [18]", "result": 112, "unit": "%"}, {"measurement": "Tumor regression rate (REG)", "setting": "[8]; [18]", "result": 97.3, "unit": "%"}, {"measurement": "TGI", "setting": "[8]; high-dose study, 20 mg/kg", "result": 107, "unit": "%"}, {"measurement": "Tumor regression rate (REG)", "setting": "[8]; high-dose study, 20 mg/kg", "result": 57.7, "unit": "%"}, {"measurement": "Tumor regression rate (REG)", "setting": "[8]; high-dose study, 40 mg/kg (so in the source)", "result": 0, "unit": "%"}, {"measurement": "TGI", "setting": "[9]; 10 mg/kg oral", "result": 35.4, "unit": "%"}, {"measurement": "TGI", "setting": "[9]; 20 mg/kg oral", "result": 85.3, "unit": "%"}, {"measurement": "TGI", "setting": "[9]; 40 mg/kg oral", "result": 109, "unit": "%"}, {"measurement": "Metabolic half-time", "setting": "[10]; dog liver microsomes", "result": 280, "unit": "min"}, {"measurement": "Metabolic half-time", "setting": "[10]; human liver microsomes", "result": 166, "unit": "min"}, {"measurement": "Metabolic half-time", "setting": "[10]; monkey liver microsomes", "result": 57.9, "unit": "min"}, {"measurement": "Metabolic half-time", "setting": "[10]; mouse liver microsomes", "result": 109, "unit": "min"}, {"measurement": "Metabolic half-time", "setting": "[10]; rat liver microsomes", "result": 384, "unit": "min"}, {"measurement": "bioavailability", "setting": "[11]; 2.5 mg/kg", "result": 56.6, "unit": "%"}, {"measurement": "bioavailability", "setting": "[11]; 5 mg/kg", "result": 74.1, "unit": "%"}, {"measurement": "bioavailability", "setting": "[11]; 10 mg/kg", "result": 33.9, "unit": "%"}, {"measurement": "AUC(0-inf)", "setting": "[11]; gavage 2.5 mg/kg", "result": 3760, "unit": "ng·h/mL"}, {"measurement": "Cmax", "setting": "[11]; gavage 2.5 mg/kg", "result": 758, "unit": "ng/mL"}, {"measurement": "AUC(0-inf)", "setting": "[11]; gavage 5 mg/kg", "result": 9850, "unit": "ng·h/mL"}, {"measurement": "Cmax", "setting": "[11]; gavage 5 mg/kg", "result": 1630, "unit": "ng/mL"}, {"measurement": "AUC(0-inf)", "setting": "[11]; gavage 10 mg/kg", "result": 9030, "unit": "ng·h/mL"}, {"measurement": "Cmax", "setting": "[11]; gavage 10 mg/kg", "result": 1440, "unit": "ng/mL"}, {"measurement": "Tmax", "setting": "[11]; gavage 2.5, 5, 10 mg/kg", "result": "0.5 to 2", "unit": "h"}, {"measurement": "half-life", "setting": "[11]; gavage 2.5-10 mg/kg", "result": "4.81 to 7.53", "unit": "h"}, {"measurement": "MRT inf", "setting": "[11]; gavage 2.5-10 mg/kg, read-out: MRTINF_obs", "result": "5.75 to 11.4", "unit": "h"}, {"measurement": "Respiratory effects", "setting": "[12]", "result": "nor did it show any effects on the respiratory parameters"}, {"measurement": "Concentration of saturation", "setting": "[13]", "result": 100, "unit": "nM"}, {"measurement": "Concentration with significant inhibitory effect on RET signaling", "setting": "[13]", "result": 10, "unit": "nM"}]}]}
